# Results reported in ChEMBL document CHEMBL1201862, “PubChem BioAssay data set” (2004).
# Activity calls are given as the source filed them.
# Key:
# [1] = target: Glyceraldehyde-3-phosphate dehydrogenase (Homo sapiens, UniProt P04406)
# [2] = viability of uninfected HEp-2 cells – cell-based, HTS, cytotoxicity control for RSV inhibitor project, dose response (AID 2410); format: functional; conditions: human respiratory syncytial virus
# cells [3] = experiment: cells
# Leucine aminopeptidase = target: T1, Leucine aminopeptidase (Plasmodium falciparum 3D7, UniProt Q8IL11); experiment: P. falciparum M17LAP inhibitors, primary screen, biochemical, fluorogenic H-Leu-NHMec substrate, 1536-well (AID 1619); format: functional
# T1 sequence (Q8IL11 whole entry): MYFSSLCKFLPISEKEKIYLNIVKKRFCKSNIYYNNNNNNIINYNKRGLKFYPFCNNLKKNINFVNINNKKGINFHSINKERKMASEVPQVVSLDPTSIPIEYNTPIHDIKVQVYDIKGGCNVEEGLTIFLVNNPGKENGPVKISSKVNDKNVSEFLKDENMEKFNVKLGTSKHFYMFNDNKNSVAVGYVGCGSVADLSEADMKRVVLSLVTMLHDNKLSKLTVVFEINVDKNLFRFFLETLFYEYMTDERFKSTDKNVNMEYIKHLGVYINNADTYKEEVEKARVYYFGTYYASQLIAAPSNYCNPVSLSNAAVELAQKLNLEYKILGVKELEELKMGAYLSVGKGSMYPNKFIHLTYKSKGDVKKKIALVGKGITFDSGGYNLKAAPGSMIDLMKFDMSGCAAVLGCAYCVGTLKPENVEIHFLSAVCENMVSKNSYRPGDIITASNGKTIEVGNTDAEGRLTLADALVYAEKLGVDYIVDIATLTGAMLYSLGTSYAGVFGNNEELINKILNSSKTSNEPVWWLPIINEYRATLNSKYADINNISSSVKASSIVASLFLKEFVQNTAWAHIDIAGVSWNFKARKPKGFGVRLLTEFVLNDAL
# Aminopeptidase N = target: T2, Aminopeptidase N (Plasmodium falciparum FcB1/Columbia, UniProt O96935); experiment: malaria alanyl aminopeptidase activity blockers – biochemical, fluorogenic H-Leu-NHMec substrate, 1536-well (AID 1445); design: species or system Plasmodium falciparum 3D7, 3D7
# T2 sequence (O96935 whole entry): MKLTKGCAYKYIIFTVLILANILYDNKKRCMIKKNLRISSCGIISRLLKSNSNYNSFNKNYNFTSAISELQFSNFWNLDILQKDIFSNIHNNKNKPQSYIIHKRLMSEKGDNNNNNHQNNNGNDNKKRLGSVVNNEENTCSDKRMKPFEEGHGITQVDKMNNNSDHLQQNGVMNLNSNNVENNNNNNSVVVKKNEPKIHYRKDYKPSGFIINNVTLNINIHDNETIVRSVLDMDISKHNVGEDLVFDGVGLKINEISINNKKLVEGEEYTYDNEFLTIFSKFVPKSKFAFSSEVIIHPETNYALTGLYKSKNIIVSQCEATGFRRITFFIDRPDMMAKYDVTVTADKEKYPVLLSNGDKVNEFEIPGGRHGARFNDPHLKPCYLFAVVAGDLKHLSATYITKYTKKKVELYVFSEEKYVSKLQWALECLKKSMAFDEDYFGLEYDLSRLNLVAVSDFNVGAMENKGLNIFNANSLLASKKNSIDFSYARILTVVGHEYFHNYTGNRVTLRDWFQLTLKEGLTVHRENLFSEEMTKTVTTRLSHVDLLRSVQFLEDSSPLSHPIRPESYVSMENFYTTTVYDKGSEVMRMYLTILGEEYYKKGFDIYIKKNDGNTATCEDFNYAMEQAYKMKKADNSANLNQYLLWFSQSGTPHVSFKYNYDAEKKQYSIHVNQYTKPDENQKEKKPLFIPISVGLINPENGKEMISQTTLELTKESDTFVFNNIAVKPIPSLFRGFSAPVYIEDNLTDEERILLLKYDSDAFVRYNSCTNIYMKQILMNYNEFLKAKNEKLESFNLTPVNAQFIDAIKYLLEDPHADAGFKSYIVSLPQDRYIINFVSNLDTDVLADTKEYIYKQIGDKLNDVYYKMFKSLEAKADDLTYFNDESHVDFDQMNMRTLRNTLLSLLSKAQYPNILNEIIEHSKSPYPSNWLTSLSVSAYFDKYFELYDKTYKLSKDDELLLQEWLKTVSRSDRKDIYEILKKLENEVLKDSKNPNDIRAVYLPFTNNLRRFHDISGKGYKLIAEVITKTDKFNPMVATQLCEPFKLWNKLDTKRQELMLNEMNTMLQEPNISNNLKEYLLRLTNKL
# [4] = target: T3, Voltage-gated N-type calcium channel alpha-1B subunit/Amyloid beta A4 precursor protein-binding family A member 1 (Homo sapiens, UniProt Q00975+Q02410); format: protein assay
# [5] = target: T3, Voltage-gated N-type calcium channel alpha-1B subunit/Amyloid beta A4 precursor protein-binding family A member 1; format: protein assay; remark: listed apart in the source
# [6] = target: T4, Ubiquitin-conjugating enzyme E2 N (Homo sapiens, UniProt P61088); format: functional;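 further: Dose-response confirmation in a TR-FRET assay detecting UBC13-driven polyubiquitin chain formation, inhibition measured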
# T4 sequence (P61088 whole entry): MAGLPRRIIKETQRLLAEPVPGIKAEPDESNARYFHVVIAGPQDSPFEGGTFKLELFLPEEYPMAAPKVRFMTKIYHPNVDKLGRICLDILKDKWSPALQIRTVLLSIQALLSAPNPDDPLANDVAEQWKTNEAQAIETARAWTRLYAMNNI
# [7] = microbe, parasite or virus in culture; format: functional; conditions: Mycobacterium tuberculosis
# cells [8] = format: functional
# Cytochrome P450 3A4 = Cytochrome P450 3A4 (Homo sapiens, UniProt P08684); conditions: Potency;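 further: confirmatory qHTS run detecting inhibitors and substrates of CYP3A4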
# [9] = target: T5, Replicative DNA helicase DnaB (Mycobacterium tuberculosis, UniProt P9WMR3); experiment: DnaB intein splicing inhibitors, dose response, biochemical, cell-free fluorescence (AID 449749); format: functional
# T5 sequence (P9WMR3 whole entry): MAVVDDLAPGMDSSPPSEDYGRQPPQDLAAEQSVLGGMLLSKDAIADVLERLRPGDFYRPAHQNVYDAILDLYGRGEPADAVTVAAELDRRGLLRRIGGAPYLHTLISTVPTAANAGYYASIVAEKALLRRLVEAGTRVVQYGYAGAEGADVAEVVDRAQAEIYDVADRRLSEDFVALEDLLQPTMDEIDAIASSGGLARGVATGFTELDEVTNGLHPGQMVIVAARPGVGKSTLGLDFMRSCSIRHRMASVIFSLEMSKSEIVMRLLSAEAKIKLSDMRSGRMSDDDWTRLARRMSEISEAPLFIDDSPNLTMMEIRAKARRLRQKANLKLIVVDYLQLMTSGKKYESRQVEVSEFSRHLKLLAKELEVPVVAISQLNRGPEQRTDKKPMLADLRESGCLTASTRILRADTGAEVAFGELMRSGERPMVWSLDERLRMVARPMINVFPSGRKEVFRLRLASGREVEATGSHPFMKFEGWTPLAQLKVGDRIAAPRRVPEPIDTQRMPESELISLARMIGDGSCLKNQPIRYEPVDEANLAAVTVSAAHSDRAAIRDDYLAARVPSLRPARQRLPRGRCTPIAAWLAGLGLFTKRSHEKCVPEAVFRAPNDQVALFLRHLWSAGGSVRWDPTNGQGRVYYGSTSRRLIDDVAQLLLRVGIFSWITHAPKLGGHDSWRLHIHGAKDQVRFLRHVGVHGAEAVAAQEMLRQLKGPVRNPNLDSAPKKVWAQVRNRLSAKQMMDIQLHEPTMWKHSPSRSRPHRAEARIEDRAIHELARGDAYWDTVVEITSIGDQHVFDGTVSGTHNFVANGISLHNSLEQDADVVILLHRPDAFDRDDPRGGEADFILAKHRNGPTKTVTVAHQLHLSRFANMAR
# Protein RecA = target: T6, Protein RecA (Mycobacterium tuberculosis, UniProt P9WHJ3); experiment: Fluorescence Cell-Free Homogeneous Dose Retest to Identify Inhibitors of RecA-Intein Splicing Activity. [Related pubchem assays (depositor defined):AID2097, AID2223, AID489010, AID492950]; format: functional
# T6 sequence (P9WHJ3 whole entry): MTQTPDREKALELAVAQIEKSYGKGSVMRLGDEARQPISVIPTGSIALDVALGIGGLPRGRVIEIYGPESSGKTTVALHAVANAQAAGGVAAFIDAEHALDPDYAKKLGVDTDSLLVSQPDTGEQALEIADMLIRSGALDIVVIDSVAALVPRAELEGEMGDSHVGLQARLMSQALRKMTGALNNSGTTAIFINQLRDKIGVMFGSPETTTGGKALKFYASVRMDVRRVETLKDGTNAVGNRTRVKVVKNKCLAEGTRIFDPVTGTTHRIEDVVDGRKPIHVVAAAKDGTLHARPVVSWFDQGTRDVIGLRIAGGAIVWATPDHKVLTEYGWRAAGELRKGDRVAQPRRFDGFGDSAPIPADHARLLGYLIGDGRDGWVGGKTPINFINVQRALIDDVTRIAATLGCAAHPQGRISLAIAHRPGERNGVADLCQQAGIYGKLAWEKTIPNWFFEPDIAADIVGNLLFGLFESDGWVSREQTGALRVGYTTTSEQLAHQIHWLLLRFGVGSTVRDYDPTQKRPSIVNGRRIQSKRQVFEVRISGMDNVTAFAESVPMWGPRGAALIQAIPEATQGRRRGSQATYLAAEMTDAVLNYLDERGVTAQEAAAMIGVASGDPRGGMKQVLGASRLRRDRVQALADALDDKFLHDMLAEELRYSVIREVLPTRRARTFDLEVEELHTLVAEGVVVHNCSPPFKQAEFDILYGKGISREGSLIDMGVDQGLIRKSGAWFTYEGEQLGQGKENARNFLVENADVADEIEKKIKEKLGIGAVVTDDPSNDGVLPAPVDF
# Vero = experiment: cells; format: functional; conditions: Chlorocebus sabaeus
# HEK293 [10] = experiment: inhibition of NOD1-driven NF-kB reporter – cell-based, luminescence, uHTS, primary screen (AID 1578); format: functional; conditions: Homo sapiens
# HEK293 [11] = experiment: cells; format: functional, cell-based; conditions: Homo sapiens
# HEK293 [12] = experiment: cells; format: functional, cell-based; conditions: Homo sapiens; remark: listed apart in the source
# [13] = target: Nucleotide-binding oligomerization domain-containing protein 2 (Homo sapiens, UniProt Q9HC29); experiment: inhibition of NOD2-driven NF-kB reporter – cell-based, luminescence, uHTS, HEK293 (AID 1566); format: functional
# HEK293 [14] = experiment: NOD2 signaling inhibitors in MDP-stimulated cells, cell-based, uHTS, luminescence (AID 2001); format: functional; conditions: Homo sapiens
# HEK293 [15] = experiment: cells; format: functional, cell-based; conditions: Homo sapiens; remark: listed apart in the source
# Cytochrome P450 3A4, sequence (P08684 whole entry): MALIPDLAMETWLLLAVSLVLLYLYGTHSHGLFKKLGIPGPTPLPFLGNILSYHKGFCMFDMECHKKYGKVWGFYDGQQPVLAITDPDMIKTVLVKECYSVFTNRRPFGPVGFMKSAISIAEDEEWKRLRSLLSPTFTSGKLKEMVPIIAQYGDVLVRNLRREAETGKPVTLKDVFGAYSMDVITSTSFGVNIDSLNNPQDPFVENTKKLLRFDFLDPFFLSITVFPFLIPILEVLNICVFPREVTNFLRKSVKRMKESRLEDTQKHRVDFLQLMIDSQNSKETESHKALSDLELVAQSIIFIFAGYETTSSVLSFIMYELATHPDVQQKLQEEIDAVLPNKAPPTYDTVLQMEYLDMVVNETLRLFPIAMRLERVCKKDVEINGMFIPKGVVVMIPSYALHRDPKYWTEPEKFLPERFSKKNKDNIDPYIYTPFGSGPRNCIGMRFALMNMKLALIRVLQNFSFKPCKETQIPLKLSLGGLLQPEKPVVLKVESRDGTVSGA
# T3 sequence (Q00975 whole entry): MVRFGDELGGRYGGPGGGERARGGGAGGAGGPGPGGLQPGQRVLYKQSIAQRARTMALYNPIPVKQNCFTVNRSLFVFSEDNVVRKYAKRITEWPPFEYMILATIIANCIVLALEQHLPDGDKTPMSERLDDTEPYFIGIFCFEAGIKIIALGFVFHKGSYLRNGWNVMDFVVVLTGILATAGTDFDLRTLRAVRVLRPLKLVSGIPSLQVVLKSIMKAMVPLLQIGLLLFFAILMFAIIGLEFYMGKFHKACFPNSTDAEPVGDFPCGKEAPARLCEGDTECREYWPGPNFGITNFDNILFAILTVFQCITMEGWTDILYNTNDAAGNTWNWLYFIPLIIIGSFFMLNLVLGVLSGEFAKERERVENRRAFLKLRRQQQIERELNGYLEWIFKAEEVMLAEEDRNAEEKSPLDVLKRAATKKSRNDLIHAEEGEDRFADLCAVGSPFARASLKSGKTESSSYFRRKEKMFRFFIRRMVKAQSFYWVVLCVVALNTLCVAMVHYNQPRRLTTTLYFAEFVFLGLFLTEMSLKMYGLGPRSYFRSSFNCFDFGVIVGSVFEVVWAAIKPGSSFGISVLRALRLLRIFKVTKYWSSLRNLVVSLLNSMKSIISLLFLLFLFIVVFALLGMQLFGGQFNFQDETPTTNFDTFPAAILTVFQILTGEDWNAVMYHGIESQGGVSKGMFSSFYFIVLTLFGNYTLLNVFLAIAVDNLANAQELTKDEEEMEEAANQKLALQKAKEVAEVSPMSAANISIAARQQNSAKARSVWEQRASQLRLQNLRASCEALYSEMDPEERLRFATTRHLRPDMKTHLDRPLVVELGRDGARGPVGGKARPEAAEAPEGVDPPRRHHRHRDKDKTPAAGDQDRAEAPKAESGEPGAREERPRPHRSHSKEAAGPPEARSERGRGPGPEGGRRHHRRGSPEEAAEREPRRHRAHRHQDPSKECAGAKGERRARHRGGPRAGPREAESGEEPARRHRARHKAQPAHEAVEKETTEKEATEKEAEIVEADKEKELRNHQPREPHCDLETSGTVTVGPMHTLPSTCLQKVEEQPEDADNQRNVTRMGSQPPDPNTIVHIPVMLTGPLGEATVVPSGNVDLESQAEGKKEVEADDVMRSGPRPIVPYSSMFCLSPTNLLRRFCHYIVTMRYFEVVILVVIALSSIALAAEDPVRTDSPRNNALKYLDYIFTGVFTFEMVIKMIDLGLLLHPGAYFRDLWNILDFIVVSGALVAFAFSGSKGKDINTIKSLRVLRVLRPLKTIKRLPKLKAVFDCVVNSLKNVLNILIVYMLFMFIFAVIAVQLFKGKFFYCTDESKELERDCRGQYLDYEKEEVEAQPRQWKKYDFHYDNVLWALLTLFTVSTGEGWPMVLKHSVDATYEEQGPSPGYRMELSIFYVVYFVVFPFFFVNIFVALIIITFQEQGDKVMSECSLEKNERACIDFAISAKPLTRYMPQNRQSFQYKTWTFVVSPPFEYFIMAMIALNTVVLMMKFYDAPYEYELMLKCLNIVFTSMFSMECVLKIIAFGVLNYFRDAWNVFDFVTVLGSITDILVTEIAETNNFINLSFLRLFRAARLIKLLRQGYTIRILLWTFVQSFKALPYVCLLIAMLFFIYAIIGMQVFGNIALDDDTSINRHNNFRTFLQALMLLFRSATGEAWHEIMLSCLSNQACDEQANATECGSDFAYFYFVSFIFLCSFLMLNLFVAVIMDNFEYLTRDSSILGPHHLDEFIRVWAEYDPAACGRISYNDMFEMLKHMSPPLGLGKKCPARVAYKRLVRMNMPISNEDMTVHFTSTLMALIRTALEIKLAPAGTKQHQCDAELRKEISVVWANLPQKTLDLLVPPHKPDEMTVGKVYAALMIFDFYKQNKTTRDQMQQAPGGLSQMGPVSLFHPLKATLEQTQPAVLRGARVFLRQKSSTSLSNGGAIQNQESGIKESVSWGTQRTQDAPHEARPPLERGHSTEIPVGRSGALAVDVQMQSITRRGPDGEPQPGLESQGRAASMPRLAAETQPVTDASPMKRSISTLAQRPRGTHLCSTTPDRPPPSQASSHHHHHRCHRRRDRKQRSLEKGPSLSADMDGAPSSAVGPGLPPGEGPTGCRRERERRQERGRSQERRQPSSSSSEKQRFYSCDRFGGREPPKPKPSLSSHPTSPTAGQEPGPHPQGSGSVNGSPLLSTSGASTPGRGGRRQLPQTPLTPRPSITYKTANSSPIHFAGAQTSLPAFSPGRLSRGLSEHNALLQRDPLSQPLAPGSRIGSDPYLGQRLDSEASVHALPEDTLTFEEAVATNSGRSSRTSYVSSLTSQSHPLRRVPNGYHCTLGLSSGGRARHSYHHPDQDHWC
# T3 sequence (Q02410 whole entry): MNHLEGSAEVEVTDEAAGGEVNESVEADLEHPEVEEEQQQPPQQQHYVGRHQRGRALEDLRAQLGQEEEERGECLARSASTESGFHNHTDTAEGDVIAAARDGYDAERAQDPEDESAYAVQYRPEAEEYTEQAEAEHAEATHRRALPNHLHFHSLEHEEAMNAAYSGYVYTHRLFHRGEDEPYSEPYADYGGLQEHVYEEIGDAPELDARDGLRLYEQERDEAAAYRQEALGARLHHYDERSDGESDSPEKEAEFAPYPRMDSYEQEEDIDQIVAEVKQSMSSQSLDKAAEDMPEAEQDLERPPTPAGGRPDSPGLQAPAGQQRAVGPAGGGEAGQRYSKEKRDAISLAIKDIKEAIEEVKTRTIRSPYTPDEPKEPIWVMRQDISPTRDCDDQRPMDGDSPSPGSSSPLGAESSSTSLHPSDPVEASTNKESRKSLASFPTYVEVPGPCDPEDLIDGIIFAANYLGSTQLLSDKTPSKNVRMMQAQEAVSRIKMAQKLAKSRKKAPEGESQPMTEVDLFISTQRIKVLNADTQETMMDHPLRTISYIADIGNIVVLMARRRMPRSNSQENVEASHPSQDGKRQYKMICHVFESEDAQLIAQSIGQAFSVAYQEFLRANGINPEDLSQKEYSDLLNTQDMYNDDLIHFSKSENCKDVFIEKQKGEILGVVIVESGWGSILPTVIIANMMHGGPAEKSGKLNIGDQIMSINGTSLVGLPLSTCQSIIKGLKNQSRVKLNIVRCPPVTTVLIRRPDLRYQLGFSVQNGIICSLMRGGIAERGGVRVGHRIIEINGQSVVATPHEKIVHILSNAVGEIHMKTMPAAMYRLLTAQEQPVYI
# Glyceraldehyde-3-phosphate dehydrogenase, sequence (P04406 whole entry): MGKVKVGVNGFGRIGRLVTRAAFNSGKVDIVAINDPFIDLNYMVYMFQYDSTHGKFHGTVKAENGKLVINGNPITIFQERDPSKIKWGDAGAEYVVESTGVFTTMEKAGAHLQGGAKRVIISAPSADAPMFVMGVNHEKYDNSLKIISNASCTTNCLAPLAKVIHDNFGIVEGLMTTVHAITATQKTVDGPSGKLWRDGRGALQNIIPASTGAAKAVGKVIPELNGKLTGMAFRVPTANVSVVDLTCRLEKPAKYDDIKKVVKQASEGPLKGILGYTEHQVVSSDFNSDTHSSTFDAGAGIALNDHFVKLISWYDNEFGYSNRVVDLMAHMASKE
# Nucleotide-binding oligomerization domain-containing protein 2, sequence (Q9HC29 whole entry, the tested form may be a part): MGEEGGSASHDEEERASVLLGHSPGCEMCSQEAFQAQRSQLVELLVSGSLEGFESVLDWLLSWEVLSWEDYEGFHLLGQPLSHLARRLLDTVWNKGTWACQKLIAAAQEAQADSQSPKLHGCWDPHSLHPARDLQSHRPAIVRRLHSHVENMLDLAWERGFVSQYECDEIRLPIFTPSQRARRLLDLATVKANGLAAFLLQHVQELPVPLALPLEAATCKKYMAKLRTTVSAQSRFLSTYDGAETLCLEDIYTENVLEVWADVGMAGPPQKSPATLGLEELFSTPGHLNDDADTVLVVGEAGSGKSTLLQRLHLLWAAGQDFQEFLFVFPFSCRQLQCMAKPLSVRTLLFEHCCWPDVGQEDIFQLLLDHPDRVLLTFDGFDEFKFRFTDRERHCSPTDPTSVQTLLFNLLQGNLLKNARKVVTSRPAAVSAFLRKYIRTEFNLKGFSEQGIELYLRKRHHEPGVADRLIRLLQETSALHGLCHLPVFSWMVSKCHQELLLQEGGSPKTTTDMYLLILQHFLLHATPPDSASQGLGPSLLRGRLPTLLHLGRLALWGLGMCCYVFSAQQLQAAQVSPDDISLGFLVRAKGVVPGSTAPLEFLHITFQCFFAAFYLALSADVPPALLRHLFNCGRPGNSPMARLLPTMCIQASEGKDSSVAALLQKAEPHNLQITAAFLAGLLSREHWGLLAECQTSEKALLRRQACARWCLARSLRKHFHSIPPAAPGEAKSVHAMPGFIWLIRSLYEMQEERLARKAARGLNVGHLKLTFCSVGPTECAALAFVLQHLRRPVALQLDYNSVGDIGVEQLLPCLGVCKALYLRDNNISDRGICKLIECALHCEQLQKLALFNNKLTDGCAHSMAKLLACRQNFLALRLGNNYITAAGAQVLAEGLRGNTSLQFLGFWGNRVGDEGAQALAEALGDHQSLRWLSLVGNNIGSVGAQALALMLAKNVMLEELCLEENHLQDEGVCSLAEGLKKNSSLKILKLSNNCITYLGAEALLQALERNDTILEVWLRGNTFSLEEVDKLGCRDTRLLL
smiles,measurement,setting,value
CCN(CC)C(=O)c1cc(-c2ccc(Cl)cc2Cl)n[nH]1,IC50,[1],> 10 µM (inconclusive)
COC(=O)c1cc(Nc2cc(C)c3c(O)cccc3n2)cc(C(=O)OC)c1,CC50,[2],44.4 µM (active)
same,IC50,cells [3],> 50 µM (active)
Nc1nonc1-c1nc2ccccc2n1CC(=O)N/N=C/c1ccc(-c2ccccc2C(=O)O)o1,IC50,Leucine aminopeptidase,73.8 µM (active)
same,IC50,Aminopeptidase N,82.7 µM (active)
O=c1cc(CO)oc(C(Nc2cccc(C(F)(F)F)c2)c2ccccn2)c1O (stereo unspecified),IC50,[4],8.71 µM (active)
same,IC50,[5],1.09 µM (active)
same,IC50,[6],> 20 µM (inactive)
Oc1ccccc1-c1nnc(COc2ccccc2)o1,CC50,[7],> 40 µM (active)
same,IC50,cells [8],8.84 µM (active)
CC1(C)C(O)CC[C@]2(C)C1CC[C@@]1(C)C2C(=O)C=C2[C@@H]3C[C@@](C)(C(=O)O)CC[C@@]3(C)CCC21C (stereo partly specified),AC50,Cytochrome P450 3A4,39.8 µM (inconclusive)
O=C(c1ccccc1)c1ccc2c(c1)N=C1CCCC(O)=C1C1c3ccccc3C(=O)N21 (stereo unspecified),CC50,[7],28.9 µM (active)
Cc1c(-c2ccc(OCc3ccccc3)cc2)nc2ccccc2c1C(=O)O,CC50,[2],42.6 µM (active)
same,IC50,cells [3],24.7 µM (active)
COc1ccccc1CNC(=O)C1CCCN1S(=O)(=O)c1cccc2cccnc12 (stereo unspecified),IC50,cells [3],18.6 µM (active)
COc1ccc(C(=O)CC(=O)c2c(O)cc(OC)cc2OC)cc1,AC50,Cytochrome P450 3A4,3.98 µM (inconclusive)
C/C(CC(=O)Nc1cc(C)ccn1)=N\NC(=O)COc1cccc(C)c1,IC50,Leucine aminopeptidase,90.2 µM (active)
same,AC50,[9],2.37 µM (active)
same,EC50,Protein RecA,1.54 µM (active)
COc1ccccc1NC(=O)c1cc(S(=O)(=O)NCc2ccccc2)ccc1F,IC50,[6],> 20 µM (inactive)
CCOC(=O)C1=C(COCCN)N=C(C)/C(=C(/O)OC)C1c1ccccc1Cl (stereo unspecified),IC50,[6],> 20 µM (inactive)
same,CC50,Vero,> 25 µM (active)
Cc1cc(C)cc(N(C(=O)c2snc(C(N)=O)c2N)C(C(=O)NCC2CCCO2)c2cccs2)c1 (stereo unspecified),IC50,[6],> 20 µM (inactive)
COc1ccc(-n2c(C)cc(/C=C3\C(=N)N4N=C(CC(=O)N5CCOCC5)SC4=NC3=O)c2C)c(OC)c1,CC50,[2],11.1 µM (active)
same,IC50,cells [3],11.7 µM (active)
O=C(O)CCc1nnc(SCC(=O)Nc2cccc(C(F)(F)F)c2)nc1O,IC50,Leucine aminopeptidase,6.64 µM (active)
O=C1C(Cl)=C(N2CCN(CCO)CC2)C(=O)N1c1ccc(C(F)(F)F)cc1,IC50,[1],> 50 µM (inconclusive)
C=CCSc1nnc(NC(=O)c2nc(SCC)ncc2Cl)s1,IC50,Leucine aminopeptidase,10.8 µM (active)
same,IC50,Aminopeptidase N,94.3 µM (active)
CCn1c(SCC(=O)Nc2nc(-c3ccccc3)cs2)nnc1-c1ccccc1,EC50,HEK293 [10],7.28 µM (active)
same,IC50,HEK293 [11],6.13 µM (active)
same,IC50,HEK293 [12],11.3 µM (active)
same,EC50,[13],7.91 µM (active)
same,IC50,HEK293 [14],5.74 µM (active)
same,IC50,HEK293 [15],> 20 µM (inactive)
Cc1cccc2c3c(ccc12)C1=C(C(=O)C3=O)C(C)CO1 (stereo unspecified),AC50,Cytochrome P450 3A4,12.6 µM (inconclusive)
